The source of these data is ChEMBL document CHEMBL1201862, “PubChem BioAssay data set” (2004).

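Method: 48-hour compound exposure of cells in 96-well plates, five concentrations, linear interpolation of endpoints. Here, GI50 denotes the concentration required for 50% inhibition of growth.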 Calls of active or inactive are those of the source. Rule as the data show it: active = GI50 up to about 1.1 µM and inactive = higher. Bounds are passed on as bounds.

Among the test systems are PC-3; HCC 2998; T47D; SR; SN12C; HT-29; OVCAR-4; SK-MEL-5; TK-10; CAKI-1; SK-OV-3; OVCAR-8; Hs-578T; UO-31; U-251; HCT-116; BT-549; Malme-3M; NCI/ADR-RES.
Experiment in all cases: inhibition of tumour cell growth, NCI panel, 48 h

With `CCC(C)(O)c1cnc(CC(C)C)c(=O)n1O` (centres undefined), the GI50 is 48.3 µM (inactive) in the assay with PC-3; 40.7 µM (inactive) in the assay on HCC 2998; 59.4 µM (inactive) in the assay on T47D; 17.2 µM (inactive) with SR; 35.1 µM (inactive) in the assay on SN12C; 38.5 µM (inactive) in the assay on HT-29. Further, the GI50 with OVCAR-4 is 74.3 µM (inactive); in the assay on SK-MEL-5, 88.1 µM (inactive); with TK-10, 97.7 µM (inactive); in the assay on CAKI-1 it was 43.8 µM (inactive); with SK-OV-3, 87.5 µM (inactive); in the assay with OVCAR-8, 34 µM (inactive). Moreover, the GI50 with Hs-578T is 80.7 µM (inactive); with UO-31 it was 40.1 µM (inactive); with U-251, 47.9 µM (inactive); with HCT-116, 44.9 µM (inactive); in the assay on BT-549 it was > 100 µM (inactive).

Regarding `OCC1NCC(O)C(O)C1O` (centres undefined), the GI50 in the assay with PC-3 was > 100 µM (inactive); in the assay with Malme-3M it was 22.4 µM (inactive); with HCC 2998, > 100 µM (inactive); in the assay on SR, > 100 µM (inactive); in the assay on SN12C it was > 100 µM (inactive); in the assay with HT-29, > 100 µM (inactive). Besides, the GI50 in the assay on OVCAR-4, in the assay with SK-MEL-5, in the assay with TK-10, in the assay with CAKI-1, in the assay on SK-OV-3 and in the assay on OVCAR-8 was > 100 µM (inactive) throughout. Besides, the GI50 in the assay on Hs-578T, in the assay on UO-31, in the assay on U-251, in the assay on HCT-116 and in the assay on BT-549 was > 100 µM (inactive) each time.

`Cc1ccc(S(=O)(=O)N2CCCSCCN(S(=O)(=O)c3ccc(C)cc3)CCCSCC2)cc1`: the GI50 was 89.5 µM (inactive) in the assay with HCC 2998; 17.5 µM (inactive) with T47D; > 100 µM (inactive) with NCI/ADR-RES; > 100 µM (inactive) in the assay on SN12C; > 100 µM (inactive) with HT-29; > 100 µM (inactive) with OVCAR-4. Besides, the GI50 in the assay with SK-MEL-5 was > 100 µM (inactive); in the assay on TK-10, > 100 µM (inactive); in the assay with SK-OV-3 it was > 100 µM (inactive); in the assay with OVCAR-8, > 100 µM (inactive); in the assay on Hs-578T, > 100 µM (inactive); in the assay with UO-31, 51.8 µM (inactive). Further, the GI50 in the assay with U-251, in the assay with HCT-116 and in the assay with BT-549 was > 100 µM (inactive) in each case.

As to `O=C(CC(=O)Nc1cccc(C(=O)O)c1)Nc1cccc(C(=O)O)c1`, the GI50 in the assay with PC-3, in the assay on HCC 2998, with T47D, in the assay on NCI/ADR-RES, in the assay with SN12C and with HT-29 was > 100 µM (inactive) each time. Moreover, the GI50 with OVCAR-4, with SK-MEL-5, with TK-10, with CAKI-1, in the assay with OVCAR-8 and in the assay on Hs-578T was > 100 µM (inactive) throughout. Besides, the GI50 in the assay on UO-31, in the assay on U-251, in the assay with HCT-116 and in the assay with BT-549 was > 100 µM (inactive) in each case.

Take `C=C(C)C(=O)OC1CC2(C)OC(=CC2=O)C(C)CC2OC(=O)C(=C)C12` (centres undefined): the GI50 in the assay with PC-3 was 14 µM (inactive); with Malme-3M it was 3.44 µM (inactive); in the assay with HCC 2998, 10.3 µM (inactive); with T47D, 4.57 µM (inactive); in the assay on NCI/ADR-RES it was 8.95 µM (inactive); in the assay on SR, 1.63 µM (inactive). The GI50 in the assay with SN12C is 5.85 µM (inactive); in the assay with HT-29 it was 3.92 µM (inactive); with OVCAR-4, 3.99 µM (inactive); in the assay on SK-MEL-5 it was 3.52 µM (inactive); in the assay with TK-10 it was 7.41 µM (inactive); in the assay with CAKI-1, 2.7 µM (inactive). Besides, the GI50 is 34.9 µM (inactive) in the assay with SK-OV-3; 8.41 µM (inactive) in the assay with OVCAR-8; 4.9 µM (inactive) in the assay with UO-31; 16.5 µM (inactive) with U-251; 1.75 µM (inactive) in the assay with HCT-116; 6.25 µM (inactive) with BT-549.

`CC(C)=C1C(=O)c2c(Cl)sc(Cl)c2C1=O`: the GI50 was 19 µM (inactive) in the assay with Malme-3M; 31 µM (inactive) in the assay on T47D; 24 µM (inactive) in the assay with NCI/ADR-RES; 27.2 µM (inactive) with SR; 20.7 µM (inactive) in the assay on SN12C; 28.8 µM (inactive) with HT-29. In addition, the GI50 in the assay on OVCAR-4 was 14.5 µM (inactive); in the assay with SK-MEL-5 it was 93.3 µM (inactive); in the assay on TK-10, 32.5 µM (inactive); with CAKI-1, 18.3 µM (inactive); in the assay with SK-OV-3 it was > 100 µM (inactive); with OVCAR-8 it was 19.7 µM (inactive). The GI50 in the assay with Hs-578T was 32.8 µM (inactive); with UO-31, 23.4 µM (inactive); in the assay on U-251, 22.2 µM (inactive); with HCT-116 it was 17.2 µM (inactive); in the assay with BT-549 it was 22 µM (inactive).

On to `C=C[C@@H]1C[C@]2(C(=O)OC)Cc3nc4ccccc4nc3CC(C(=O)OC)=C2O1`, for which the GI50 was 62.4 µM (inactive) with PC-3; > 100 µM (inactive) with Malme-3M; 85.5 µM (inactive) in the assay with T47D; > 100 µM (inactive) in the assay with NCI/ADR-RES; > 100 µM (inactive) with SN12C; > 100 µM (inactive) in the assay with HT-29. Moreover, the GI50 with OVCAR-4 was > 100 µM (inactive); in the assay with SK-MEL-5, 78.9 µM (inactive); with TK-10, > 100 µM (inactive); in the assay with CAKI-1 it was > 100 µM (inactive); with SK-OV-3, > 100 µM (inactive); with OVCAR-8, > 100 µM (inactive). In addition, the GI50 in the assay with Hs-578T was > 100 µM (inactive); in the assay on U-251 it was 92.7 µM (inactive); in the assay on HCT-116, > 100 µM (inactive); in the assay with BT-549, 57.1 µM (inactive).

Turning to `CCOc1cccc(-c2cc(O)c3cc4c(cc3n2)OCO4)c1`, the GI50 in the assay with PC-3 is 0.112 µM (active); in the assay on Malme-3M, 0.141 µM (active); with HCC 2998 it was 0.239 µM (active); with T47D, 54.7 µM (inactive); in the assay on NCI/ADR-RES, 0.0828 µM (active); with SR, 0.0476 µM (active). The GI50 in the assay on SN12C was 0.191 µM (active); in the assay on HT-29, 0.221 µM (active); in the assay on OVCAR-4 it was 82 µM (inactive); with SK-MEL-5, 0.0505 µM (active); in the assay with TK-10 it was 0.421 µM (active); with CAKI-1, 0.2 µM (active). Also, the GI50 is 0.166 µM (active) in the assay with SK-OV-3; 0.265 µM (active) in the assay on OVCAR-8; 0.163 µM (active) in the assay on Hs-578T; 0.339 µM (active) in the assay on UO-31; 0.0619 µM (active) in the assay with U-251; 0.0942 µM (active) in the assay with HCT-116.

For `CCNC(=O)C1CCCN1C(=O)C(CCCN=C(N)N)NC(=O)C(CC(C)C)NC(=O)C(Cc1c[nH]c2ccccc12)NC(=O)C(Cc1ccc(O)cc1)NC(=O)C(CO)NC(=O)C(Cc1c[nH]c2ccccc12)NC(=O)C(Cc1c[nH]cn1)NC(=O)C1CCC(=O)N1` (centres undefined), the GI50 in the assay on PC-3, in the assay on Malme-3M, in the assay with HCC 2998, with NCI/ADR-RES, in the assay on SR and in the assay with SN12C was > 100 µM (inactive) throughout. In addition, the GI50 in the assay with HT-29, in the assay with OVCAR-4, in the assay on SK-MEL-5, in the assay on TK-10, in the assay with CAKI-1 and with SK-OV-3 was > 100 µM (inactive) throughout. For the same compound, the GI50 in the assay with OVCAR-8, with Hs-578T, in the assay with UO-31, in the assay with U-251 and in the assay on BT-549 was > 100 µM (inactive) each time.

Turning to `O=C1CC2C(=O)c3ccccc3CC2c2ccccc21` (centres undefined), the GI50 in the assay on PC-3 is 43 µM (inactive); in the assay on Malme-3M, 39 µM (inactive); in the assay on T47D, 49.2 µM (inactive); in the assay on SR, 13.8 µM (inactive); in the assay with SN12C, 55.3 µM (inactive); in the assay on HT-29, 44.9 µM (inactive). Also, the GI50 in the assay on OVCAR-4 was 29.5 µM (inactive); with TK-10, 87.9 µM (inactive); in the assay with SK-OV-3, > 100 µM (inactive); in the assay with OVCAR-8, 39.5 µM (inactive); in the assay with Hs-578T it was > 100 µM (inactive); in the assay with UO-31 it was 12 µM (inactive). Moreover, the GI50 is 57.4 µM (inactive) with U-251, 38.6 µM (inactive) in the assay on HCT-116 and 81.8 µM (inactive) in the assay with BT-549.

Consider `CCN(CC)c1ccc2c(c1)OC(=O)C(c1nnc(-c3ccc([N+](=O)[O-])cc3)o1)C2` (centres undefined), for which the GI50 in the assay on PC-3, in the assay with Malme-3M, with HCC 2998, in the assay with NCI/ADR-RES, in the assay with HT-29 and with OVCAR-4 was > 100 µM (inactive) each time. Further, the GI50 in the assay with SK-MEL-5, with TK-10, in the assay with CAKI-1, in the assay on SK-OV-3, in the assay on OVCAR-8 and in the assay on Hs-578T was > 100 µM (inactive) in each case. Moreover, the GI50 in the assay with UO-31, in the assay on U-251, in the assay on HCT-116 and in the assay on BT-549 was > 100 µM (inactive) each time.

On to `CC1CCCN(CP(=O)(c2ccccc2)c2ccccc2)C1` (centres undefined), for which the GI50 is > 100 µM (inactive) with PC-3; > 100 µM (inactive) with Malme-3M; 52.5 µM (inactive) in the assay with HCC 2998; > 100 µM (inactive) in the assay on NCI/ADR-RES; > 100 µM (inactive) with SR; > 100 µM (inactive) with SN12C. Also, the GI50 was 94.4 µM (inactive) with OVCAR-4; > 100 µM (inactive) in the assay with SK-MEL-5; > 100 µM (inactive) in the assay on TK-10; > 100 µM (inactive) in the assay on CAKI-1; > 100 µM (inactive) in the assay on SK-OV-3; > 100 µM (inactive) in the assay with OVCAR-8. Besides, the GI50 was > 100 µM (inactive) in the assay on Hs-578T; > 100 µM (inactive) in the assay with UO-31; > 100 µM (inactive) in the assay with U-251; 93.8 µM (inactive) with HCT-116; > 100 µM (inactive) with BT-549.
